For this experiment, the system named is 70% normal and 30% senescent human dermal fibroblasts. Description: Senolytic activity study (SA-beta-galactosidase, flow cytometry). The experiment is classed as cell-based. Particulars: 1.5 μM, 72 hours. The method, then:
Normal and senescent cell populations were obtained from normal human dermal fibroblasts. For the normal cell population, the cells were seeded in cell culture medium (Dulbecco's Modified Eagle Medium supplemented with 10% serum and 1% antibiotics) and allowed to adhere and proliferate in a humidified cell incubator maintaining 37° C. and 5% CO2. These were then passaged or collected when 90% confluent. For the senescent cell population, the normal fibroblast cells were at this stage shortly exposed to 200 μM H2O2 followed by normal cell culture medium. Several days later, the cells were treated again with H2O2 to obtain a fully senescent population. Both normal and senescent populations were mixed into a 70% normal and 30% senescent cell population and represented the treatment population. Afterward, the 70% normal and 30% senescent cell population were seeded in cell culture medium and allowed to adhere in the cell incubator. […] Afterward, senescence-associated beta-galactosidase was visualized—a well-known senescence marker—in the cells to quantify the senescence levels using flow cytometry. […] Data are normalized to the untreated control (30% senescent cells and 70% normal cells) and expressed as the mean±SD (n=4).

The values that follow come from patent US20260216054A1, “COMPOSITIONS COMPRISING EPILOBIUM FLEISCHERI EXTRACT FOR TREATING SIGNS OF AGING” (DSM IP Assets B.V., priority 2023, published 2026).

`CC1(C)CCC(c2ccc(Cl)cc2)=C(CN2CCN(c3ccc(C(=O)NS(=O)(=O)c4ccc(N[C@H](CCN5CCOCC5)CSc5ccccc5)c(S(=O)(=O)C(F)(F)F)c4)cc3)CC2)C1` [Navitoclax]: the “Senescent cells (%)” value (70% normal/30% senescent mix, normalized to untreated control (30%), mean, n=4) came out at 10%. Further, the Significant senolytic effect entry (versus CTRL) was “Yes”.
